According to patent publication US20170196859A1, “PHARMACEUTICAL COMPOSITION COMPRISING PYRAZINE CARBOXAMIDE COMPOUND AS ACTIVE INGREDIENT” (Astellas Pharma Inc., priority 2014, published 2017):

Experiments:
JAK3 kinase = target: T1, JAK3 kinase (Homo sapiens, UniProt P52333); assay: JAK3 kinase inhibitory activity (QSS Assist JAK3_MSA kit); assay type: biochemical; conditions: 30 min preincubation, ATP 1 mM
T1 construct: purchased Carna Bioscience QSS Assist JAK3_MSA kit
T1 sequence (P52333 1-1124): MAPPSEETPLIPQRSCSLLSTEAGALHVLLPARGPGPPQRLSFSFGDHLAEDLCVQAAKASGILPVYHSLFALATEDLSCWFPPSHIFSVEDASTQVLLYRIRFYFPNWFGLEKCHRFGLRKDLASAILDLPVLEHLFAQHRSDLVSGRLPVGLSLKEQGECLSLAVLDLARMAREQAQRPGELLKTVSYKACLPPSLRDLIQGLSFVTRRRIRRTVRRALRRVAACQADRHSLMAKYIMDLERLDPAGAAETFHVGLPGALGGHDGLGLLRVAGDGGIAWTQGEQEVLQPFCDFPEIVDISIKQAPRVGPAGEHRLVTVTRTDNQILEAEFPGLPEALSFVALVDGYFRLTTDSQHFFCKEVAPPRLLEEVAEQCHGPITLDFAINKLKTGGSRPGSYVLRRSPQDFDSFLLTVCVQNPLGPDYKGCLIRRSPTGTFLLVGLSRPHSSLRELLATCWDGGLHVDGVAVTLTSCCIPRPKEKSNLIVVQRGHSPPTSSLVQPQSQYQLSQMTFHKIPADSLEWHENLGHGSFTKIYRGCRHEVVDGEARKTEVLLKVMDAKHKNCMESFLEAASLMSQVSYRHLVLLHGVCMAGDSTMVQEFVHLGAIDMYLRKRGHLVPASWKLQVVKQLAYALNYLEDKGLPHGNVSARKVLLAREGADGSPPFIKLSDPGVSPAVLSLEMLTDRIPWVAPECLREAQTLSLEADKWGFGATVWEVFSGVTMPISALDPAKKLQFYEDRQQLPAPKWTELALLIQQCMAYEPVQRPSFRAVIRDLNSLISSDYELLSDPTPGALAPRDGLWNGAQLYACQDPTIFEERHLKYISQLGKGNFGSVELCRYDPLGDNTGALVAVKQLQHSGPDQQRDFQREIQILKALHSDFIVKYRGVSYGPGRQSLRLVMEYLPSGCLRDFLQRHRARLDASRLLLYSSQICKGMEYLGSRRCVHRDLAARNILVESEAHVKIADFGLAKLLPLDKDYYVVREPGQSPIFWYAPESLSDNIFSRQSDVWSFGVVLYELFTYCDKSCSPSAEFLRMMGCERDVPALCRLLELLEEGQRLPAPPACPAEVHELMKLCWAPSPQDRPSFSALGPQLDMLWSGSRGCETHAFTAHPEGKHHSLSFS
Method: The JAK3 kinase inhibitory activity was evaluated using QSS Assist JAK3_MSA kit (Carna Bioscience).
The test compound B was dissolved in dimethyl sulfoxide (DMSO) to prepare a solution at a 100-fold concentration as compared to the test concentration. The solution was also 25-fold diluted with an appurtenant assay buffer to obtain a test compound B solution. In addition, JAK3 kinase appurtenant to the kit was used for the reaction.
5 μL of the test compound B solution at a 4-fold concentration, prepared using the aforementioned assay buffer, and 10 μL of a JAK3 kinase solution at a 2-fold concentration were mixed within a well of a 384 well plate, and incubated at room temperature for 30 minutes. Continuously, 5 μL of a substrate peptide/ATP/MgCl2 solution at a 4-fold concentration was added thereto to perform the reaction at room temperature for 1 hour. The substrate peptide was used at a final concentration of 1 μM, ATP at a final concentration of 1 mM, and MgCl2 at a final concentration of 5 mM. Thereafter, 60 μL of an appurtenant termination buffer was added thereto to stop the reaction. The JAK3 kinase activity was calculated by quantifying a product conversion ratio obtained from the substrate peptide peak height and the product (phosphorylated substrate peptide) peak height with LabChip EZ Reader II (PerkinElmer). […]

[1] = test system: OCI-Ly10 subcutaneous xenograft; assay: Anti-tumor evaluation in OCI-Ly10 subcutaneous xenograft mouse model; assay type: in vivo; conditions: for tumor volume after 14 days: control 188 to 520 mm^3
Method: The human diffuse large B-cell lymphoma cell line OCI-Ly10 cells were subcutaneously implanted to a dorsal part of an immunodeficient mouse (NOD.CB 17-Prkdc scid/J, male, 4-week-old (Charles River Laboratories Japan, Inc.)) to prepare an OCI-Ly10 subcutaneous xenograft mouse model. To mice which were divided based on the tumor volumes, 0.5% methylcellulose (control group: 10 mL/kg/day, QD, po (n=4)) or the test compound B (test compound B-administered group: 30 or 100 mg/kg/day in 0.5% methylcellulose suspension, QD, po (n=4)) were administered. The change in the tumor volume was evaluated over time.

[2] = test system: human mantle cell lymphoma cell line Rec-1 cells; assay: Proliferation inhibition, Rec-1 cells (CellTiter-Glo); assay type: cell-based; conditions: Rec1, 72 h, 3 days culture
Method: Rec-1 is a cell line originated from human mantle cell lymphoma, a kind of B-cell malignant neoplasm, and the BTK expression and phosphorylation have been confirmed (Cell Oncol. 2011; 34:141-153). The human mantle cell lymphoma cell line Rec-1 cells (American Type Culture Collection, CRL-3004) cultured in RPMI1640 medium (Sigma) containing 10% bovine serum were seeded into 96 well plates. On the next day, DMSO solutions of the test compound B at final concentrations from 1 nM to 10 μM or only DMSO (DMSO group) were added thereto to culture the cells at 37° C. in 5% CO2 for 3 days. Thereafter, the cell number was measured using a cell counting reagent (CellTiter-Glo (registered trademark) Luminescent Cell Viability Assay (Promega)). The cell proliferation inhibition rate was calculated as the measured value in the DMSO group set as 0% inhibition and the measured value in the well only with the medium on which the cells have not been seeded set as 100% inhibition.

With `C=CC(=O)N1CC[C@@H](Oc2nc(Nc3ccc(N4CCC(N5CCN(C)CC5)CC4)cc3)c(C(N)=O)nc2CC)C1` [test compound B, 5-{[(3R)-1-acryloylpyrrolidin-3-yl]oxy}-6-ethyl-3-({4-[4-(4-methylpiperazin-1-yl)piperidin-1-yl]phenyl}amino)pyrazine-2-carboxamide monomethanesulfonate] the IC50 (JAK3 kinase) was 0.44 nM, the “tumor volume after 14 days” value ([1]; 30 mg/kg/day QD po, 190 mm^3 at start of administration) was 50 mm^3 and the “tumor volume after 14 days” value ([1]; 100 mg/kg/day QD po, 184 mm^3 at start of administration) was 22 mm^3. The “antitumor activity in OCI-Ly10 xenograft mouse model” value ([1]; summary statement, 30 and 100 mg/kg/day) was “remarkable antitumor activity with regression in a dose-dependent manner” and the IC50 [2] was 68 nM.
